The results in this text go back to ChEMBL document CHEMBL3804802, “Novel sulfonamide bearing coumarin scaffolds as selective inhibitors of tumor associated carbonic anhydrase isoforms IX and XII” (Bioorg Med Chem, 2016).

The target in the assay is Carbonic anhydrase 9 (Homo sapiens, UniProt Q16790). In words: Inhibition of human carbonic anhydrase 9 using saturated CO2 as substrate incubated for 10 mins prior to testing by stopped-flow CO2 hydrase assay.
As a reminder, the Ki is a measure of affinity in units of concentration, obtained from inhibition or displacement. Low values mean tighter binding, high ones weaker binding. With `NS(=O)(=O)c1ccc2c(c1)sc1nc(-c3cc4ccccc4oc3=O)cn12`, the Ki is 43.6 nM.

Consider `NS(=O)(=O)c1ccc2c(c1)sc1nc(-c3cc4cc(Cl)ccc4oc3=O)cn12`, for which the Ki was found to be 11.4 nM.

In turn, `NS(=O)(=O)c1ccc2c(c1)sc1nc(-c3cc4cc(Br)ccc4oc3=O)cn12` yielded a Ki of 24.9 nM.

`NS(=O)(=O)c1ccc(Nc2nc(-c3cc4cc(Br)ccc4oc3=O)cs2)cc1` came in with a Ki of 23.6 nM.

The compound `NS(=O)(=O)c1ccc(-n2cc(/C=N\Nc3nc(-c4cc5cc(Br)ccc5oc4=O)cs3)c(-c3ccccc3)n2)cc1` had a Ki of 21.6 nM.

For the compound `NS(=O)(=O)c1ccc(-n2cc(/C=N\Nc3nc(-c4cc5ccccc5oc4=O)cs3)c(-c3ccc(F)cc3)n2)cc1`, the Ki turned out to be 2.28 nM.

Consider `NS(=O)(=O)c1ccc(-n2cc(/C=N\Nc3nc(-c4cc5cc(Br)ccc5oc4=O)cs3)c(-c3ccc(F)cc3)n2)cc1`, for which the Ki was found to be 26.5 nM.

`Cc1ccc(-c2nn(-c3ccc(S(N)(=O)=O)cc3)cc2/C=N\Nc2nc(-c3cc4ccccc4oc3=O)cs2)cc1` had a Ki of 28.6 nM. The Ki values of the last two compounds are within 1.5-fold of each other.

Compound `Cc1ccc(-c2nn(-c3ccc(S(N)(=O)=O)cc3)cc2/C=N\Nc2nc(-c3cc4cc(Cl)ccc4oc3=O)cs2)cc1` showed a Ki of 24.5 nM.

`C/C(=N\Nc1ccc(S(N)(=O)=O)cc1)c1cc2ccccc2oc1=O`: the Ki amounted to 58.6 nM.

For `NS(=O)(=O)c1ccc(-n2cc(/C=N\Nc3nc(-c4cc5ccccc5oc4=O)cs3)c(-c3ccccc3)n2)cc1`, affinity was put at a Ki of 19.7 nM.

`NS(=O)(=O)c1ccc(Nc2nc(-c3cc4cc(Cl)ccc4oc3=O)cs2)cc1` displayed a Ki of 25 nM.

Regarding `COc1ccc(-c2nn(-c3ccc(S(N)(=O)=O)cc3)cc2/C=N\Nc2nc(-c3cc4cc(Cl)ccc4oc3=O)cs2)cc1`, the Ki turned out to be 20.4 nM.

`NS(=O)(=O)c1ccc(-n2cc(/C=N\Nc3nc(-c4cc5cc(Cl)ccc5oc4=O)cs3)c(-c3ccccc3)n2)cc1`: the affinity corresponds to a Ki of 28.3 nM.

Consider `COc1ccc(-c2nn(-c3ccc(S(N)(=O)=O)cc3)cc2/C=N\Nc2nc(-c3cc4ccccc4oc3=O)cs2)cc1`, for which affinity was put at a Ki of 21.6 nM.

The compound `NS(=O)(=O)c1ccc(Nc2nc(-c3cc4ccccc4oc3=O)cs2)cc1` showed a Ki of 23.8 nM. This Ki and that of the compound before are within 1.5-fold of each other.

In turn, `NS(=O)(=O)c1ccc(-n2cc(/C=N\Nc3nc(-c4cc5cc(Cl)ccc5oc4=O)cs3)c(-c3ccc(Cl)cc3)n2)cc1` registered a Ki of 28.1 nM.

On to `NS(=O)(=O)c1ccc(-n2cc(/C=N\Nc3nc(-c4cc5ccccc5oc4=O)cs3)c(-c3ccc(Cl)cc3)n2)cc1`, for which the affinity, expressed as Ki, was 2.32 nM. This Ki is about 12-fold lower than that of the compound before.

For the compound `C/C(=N\Nc1ccc(S(N)(=O)=O)cc1)c1cc2cc(Cl)ccc2oc1=O`, the Ki came to 2.35 nM.

In the case of `C/C(=N\Nc1ccc(S(N)(=O)=O)cc1)c1cc2cc(Br)ccc2oc1=O`, the affinity corresponds to a Ki of 23.6 nM. Against the preceding compound, the Ki is about 10-fold higher.

In the case of `Cc1ccc(-c2nn(-c3ccc(S(N)(=O)=O)cc3)cc2/C=N\Nc2nc(-c3cc4cc(Br)ccc4oc3=O)cs2)cc1`, the Ki worked out at 26 nM. This Ki and that of the compound before are within 1.5-fold of each other.

As for `NS(=O)(=O)c1ccc(-n2cc(/C=N\Nc3nc(-c4cc5cc(Cl)ccc5oc4=O)cs3)c(-c3ccc(F)cc3)n2)cc1`, the affinity, expressed as Ki, was 2.54 nM. Against the preceding compound, the Ki is about 10-fold lower.

`NS(=O)(=O)c1ccc(-n2cc(/C=N\Nc3nc(-c4cc5cc(Br)ccc5oc4=O)cs3)c(-c3ccc(Cl)cc3)n2)cc1` showed a Ki of 23.1 nM.

`COc1ccc(-c2nn(-c3ccc(S(N)(=O)=O)cc3)cc2/C=N\Nc2nc(-c3cc4cc(Br)ccc4oc3=O)cs2)cc1` showed a Ki of 20.1 nM.
